Like-named read-outs stand apart in the source and are kept apart here.

Series [1] can be described thus: Assay of plasma and perilymph for lamotrigine (pharmacokinetic evaluation). The format is in vivo. As to conditions: guinea pig, single oral dose 20 mg/kg; for concentration at 15 h / Tmax / Cmax: male, albino. As to the method:
All solutions were prepared fresh on the day of dosing and stored at 2-8° C., protected from light, between dosing sessions. In order to establish the otoprotective properties of LTG, a pharmacokinetic evaluation study was designed to establish penetration of LTG into guinea pig perilymph and plasma. A total of 17 healthy adult male albino guinea pigs were used. […] Two untreated control animals were also sampled for comparison. […] After the terminal blood sample had been taken, the animal received an overdose of anaesthetic and was decapitated. The bulla was removed and thoroughly cleaned to remove all tissue and fluids. […] Levels of LTG in both plasma and perilymph were determined using a protein precipitation extraction procedure using high performance liquid chromatography (HPLC) with ultraviolet (UV) detection. The LTG retention time was 5.4 minutes and quantification was carried out using peak areas.

For series [2], the system named is cochlea nerve compound action potential (CAP). Description: Otoprotection after acute noise insult: CAP threshold shifts. The class given is in vivo, guinea pig. As to conditions: 20 mg/kg about 2 hours before 15 minutes filtered (5-20 KHz) noise; 8, 16, 24 and 30 KHz. The procedure:
Sedation was achieved using an intramuscular injection of 0.5 mL/kg medetomidine followed by an intraperitoneal injection of 6 mL/kg fentanyl approximately 10 minutes later (loss of the pedal reflex was used to determine sufficient sedation for surgery).
The cochlea nerve compound action potential (CAP) was generated in response to discrete acoustic stimuli. It was used to determine both control and treatment related changes in auditory thresholds by measuring changes in CAP latency (milliseconds) and amplitude (μVolts).
Tone ‘pip’ stimuli of 5 millisecond duration were computer generated at 8, 16, 24 and 30 KHz and fed to an attenuator (1 dB resolution). The tone pip was then fed to a Bruel and Kjaer 4192, (microphone) serving as an acoustic driver, which was placed inside an ear speculum coupled to the ear canal. CAP averaging was performed between ×50 to 100 times and the CAP threshold was determined by visual inspection of the recorded time signal. Accuracy was typically between 1-3 dB, using a CAP detection criterion of approximately 1 μV.
Animals were then exposed to 15 minutes filtered (5-20 KHz) free field noise (approximately […]) during which ESAC measurements were made at 5 minute intervals.

The test system of series [3] is supramaximal electroshock (MES) model. As to conditions: rat; cited from earlier work.

With `Nc1nnc(-c2cccc(Cl)c2Cl)c(N)n1` [LTG, 3,5-Diamino-6-(2,3-dichlorophenyl)-1,2,4-triazine], the “levels in perilymph relative to plasma” value in series [1] (timepoints 1-15 hours) is on record as “approximately twice”. Moreover, the concentration at 15 h in series [1] (perilymph, read-out: mean perilymph LTG level after the 15 hour sampling period) turned out to be 3200 ng/mL; in series [1] (plasma, read-out: mean plasma LTG level after the 15 hour sampling period) it was 1000 ng/mL. Also, the Tmax in series [1] (perilymph, read-out: perilymph approximate mean time of maximum concentration (Tmax)) was approximately 2 h; in series [1] (plasma, read-out: plasma Tmax), 1 h. Besides, the Cmax in series [1] (perilymph, read-out: perilymph mean maximum concentration (Cmax)) is 6140 ng/mL; in series [1] (plasma, read-out: mean plasma Cmax) it was 3590 ng/mL. Besides, the “CAP threshold shifts after noise versus noise control” value in series [2] is “mean thresholds were higher in the LTG treated animals and reached statistical significance at 8 kHz”. In series [3], the “effective oral dose (ED50)” value is recorded as 6.8 mg/kg.

The values are drawn from patent US20040023962A1, “Use of medicaments” (priority 2000, published 2004).
